{"source": "paper PMC6934184", "about": "“Selective DNA-PKcs inhibition extends the therapeutic index of localized radiotherapy and chemotherapy” (The Journal of Clinical Investigation, 2019)", "biological_target": "T1, DYRK2 (Homo sapiens, UniProt Q92630)", "T1 construct": "purchased Thermo Fisher Scientific (Life Technologies) SelectScreen", "T1 sequence (Q92630 whole entry)": "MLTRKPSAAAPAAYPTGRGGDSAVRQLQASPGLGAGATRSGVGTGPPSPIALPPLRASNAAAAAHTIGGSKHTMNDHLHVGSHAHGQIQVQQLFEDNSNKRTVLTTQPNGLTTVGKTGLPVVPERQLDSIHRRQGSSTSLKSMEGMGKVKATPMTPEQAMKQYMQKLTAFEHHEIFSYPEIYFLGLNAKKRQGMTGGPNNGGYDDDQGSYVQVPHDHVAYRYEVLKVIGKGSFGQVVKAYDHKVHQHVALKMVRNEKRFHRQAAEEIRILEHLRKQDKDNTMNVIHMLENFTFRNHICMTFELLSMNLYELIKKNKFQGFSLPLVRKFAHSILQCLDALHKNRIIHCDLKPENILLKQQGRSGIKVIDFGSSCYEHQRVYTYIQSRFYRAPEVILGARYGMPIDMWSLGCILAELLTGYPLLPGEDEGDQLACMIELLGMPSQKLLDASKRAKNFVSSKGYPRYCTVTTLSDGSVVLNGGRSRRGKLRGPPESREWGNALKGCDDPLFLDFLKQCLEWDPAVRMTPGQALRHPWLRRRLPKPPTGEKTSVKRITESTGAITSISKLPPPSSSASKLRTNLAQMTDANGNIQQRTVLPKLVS", "assay": "SelectScreen LanthaScreen", "assay_type": "binding", "settings": "read-out: % displacement", "method_in_brief": "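NU5455 was profiled across the SelectScreen Broad panel of kinase activity and binding assays. Z'LYTE reactions such as CSF1R ran at apparent Km ATP, while the Adapta CAMK1 assay used ATP listed as 10. Values are given as percent.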"}
{"smiles": "CN(C(=O)CN1CCOCC1)c1ccc2sc3c(-c4cccc5c(=O)cc(N6CC7CCC(C6)O7)oc45)cccc3c2c1", "note": "[NU5455]", "values": [{"measurement": "inhibition at 1 µM", "result": 5, "unit": "%"}]}
